Data as given in US20240299394A1, “TARGETED TREATMENT FOR SKIN FRAGILITY DISEASES” (University of Washington, priority 2023, published 2024).
“Also recorded” adds a separate entry of the source.

What was measured:
NHEK monolayers [1] = assay: Monolayer mechanical dissociation assay, B-RAF inhibitor model of Grover disease; assay type: cell-based, human; settings: co-treatment with Dab or Vem; trametinib 1 μM, U0126 10 μM, PD98059 20 μM; 24 h
Experimental: Dispase-based mechanical dissociation assays were carried out as described (70). Keratinocytes were plated at a density of 1×10^6 cells per well of 6-well cell culture dishes. Upon reaching confluence, the cells were switched into E-medium. Vehicle control (DMSO) or chemical inhibitors were added at the following concentrations: Dabrafenib (1 μM), vemurafenib (10 μM) trametinib (1 μM), U0126 (10 μM), or PD98059 (20 μM). After 24 h, monolayers were washed with PBS and then incubated with 500 μL dispase (5 U/ml) in Hank's balanced salt solution (Stemcell Technologies of Vancouver, Canada, Cat. #07913) for 30 minutes at 37° C. Next, 4.5 mL PBS was added to the wells and all liquid plus released monolayers were transferred into 15 mL conical tubes, which were placed together in a rack and inverted 1-10 times to induce mechanical stress. Monolayer fragments were transferred back into 6-well cell culture plates and imaged with a 12-megapixel digital camera. Fragments were counted in Fiji.

NHEK monolayers [2] = assay: Monolayer mechanical dissociation assay, SERCA2 inhibition with thapsigargin; assay type: cell-based, human; settings: 24 hours; for integrity of epithelial sheets despite SERCA2 inhibition: with 1 μM TG, 1 μM Tram, 10 μM U0126, 20 μM PD98059, 1 μM dabrafenib
Experimental: (§1) Dispase-based mechanical dissociation assays were carried out as described (Simpson C L, et al. Am J Pathol. 2010; 177(6): p. 2921-37). Keratinocytes were plated at a density of 1×10^6 cells per well of 6-well cell culture dishes. Upon reaching confluence, the calcium concentration of the medium was adjusted to 1.3 mM. Vehicle control (DMSO) or chemical inhibitors were added at the following concentrations: […] After 24 to 72 hours, monolayers were washed with PBS and then incubated with 500 μL dispase (5 U/ml) in Hank's balanced salt solution (Stemcell Technologies of Vancouver, CA, Cat. #07913) for 30 minutes at 37° C. Next, 4.5 ml PBS was added to the wells and all liquid plus released monolayers were transferred into 15 mL conical tubes, which were placed together in a rack and inverted 5-10 times to induce mechanical stress. Monolayer fragments were transferred back into 6-well cell culture plates and imaged with a 12-megapixel digital camera. Fragments were counted in Fiji.

[3] = test system: HET or KO keratinocyte sheets; assay: Monolayer mechanical dissociation assay, SERCA2-deficient keratinocytes; assay type: cell-based, human; settings: HET or KO monolayers; trametinib 1 μM 48 hours; PD98059 20 μM 24 hours
Experimental: as §1

[4] = test system: organotypic epidermis grown from NHEKs; assay: Histology (H&E) of organotypic epidermis treated with TG; assay type: cell-based, human
[5] = test system: HET cells (SERCA2-depleted keratinocytes, THEKs); assay: RT-qPCR of keratinocyte mRNA transcripts; assay type: cell-based, human; settings: HET cells in E-medium 24 hours; trametinib 1 μM, U0126 10 μM, PD184352 10 μM
Experimental: THEKs were seeded at a density of 1×10^6 cells per well of 6-well cell culture dishes in complete KSFM. Upon reaching confluence, KSFM was replaced with E-medium containing vehicle control (DMSO) or inhibitors at the following concentrations: Trametinib (1 μM), U0126 (10 μM), or PD184352 (10 μM). At the indicated time points, cell culture medium was removed and cells were washed once with PBS. RNA was extracted using the NucleoSpin RNA Plus Kit (Machery-Nagel of Duren, Germany) followed by reverse-transcription with the iScript cDNA synthesis kit (Bio-Rad of Hercules, CA) according to the manufacturer's instructions. Copy DNAs, also referred to as complementary DNAs (cDNAs) were diluted 5-fold and 2 μL of the resulting cDNAs were used for each 10 μL quantitative polymerase chain reaction (qPCR) assay. Real-time qPCR assays were carried out using the TaqMan Gene expression master mix (Applied Biosystems of Waltham, MA) according to the manufacturer's protocol. Pre-designed TaqMan probes from Thermo-Fisher were used for quantification of human Actb (Hs01060665_g1), Krt1 (Hs00196158_m1), Krt10 (Hs00166289_m1), Krt14 (Hs00265033_m1), Dsg1 (Hs00355084_m1), Alox12b (Hs00153961_m1), Alox15b (Hs00153988_m1), Ifi27 (Hs01086373_g1), Trpv3 (Hs00376854_m1), Trpv4 (Hs01099348_m1), or Notch1 (Hs01062014_m1). The housekeeping gene Actb was used as an endogenous control and mRNA fold changes were determined using the 2^(−ΔΔCt) method.

NHEKs = assay: KRT10 immunostaining of TG-treated keratinocytes; assay type: cell-based, human; settings: 1 μM TG alone, 48 hours
Experimental: Keratinocytes were grown to confluence in 35 mm, glass-bottom cell culture dishes (MatTek of Ashland, MA, #P35G-1.5-20-C). For staining keratins and desmosomal proteins, cells were fixed in ice-cold 100% methanol at −20° C. for 2 minutes, allowed to dry, then re-hydrated in PBS. For staining other proteins, cells were fixed in 4% paraformaldehyde for 10 minutes at 37° C. Fixed cells were then incubated with blocking buffer [0.5% (w/v) bovine serum albumin (BSA, Sigma), 10% (w/v) normal goat serum (NGS, Sigma) in PBS] for 30 minutes at 37° C. Cells were then washed with PBS. Primary antibodies were diluted in 0.5% (w/v) BSA in PBS and incubated on the cells overnight at 4° C. Primary antibody dilutions were as follows: rabbit anti-SERCA2 (1:200), rabbit anti-cytokeratin 10 (1:2,000), mouse anti-Desmoglein 1 (1:100), mouse anti-Desmoglein 2 (1:100), mouse anti-Desmoglein 3 (1:100), mouse anti-Plakoglobin (1:100), rabbit anti-PERK1/2 (1:400), and mouse anti-ERK1/2 (1:400). Cells were washed three times with PBS, then incubated with species-specific secondary antibodies diluted at 1:300 (with or without Hoechst at 1:500) in 0.5% (w/v) BSA in PBS for 30 min at 37° C. […]
Fluorescence microscopy images were analyzed using Fiji software. Quantification of fluorescence intensity was performed in a blinded manner using non-visibly identifiable microscopy images. […]

[6] = test system: organotypic cultures of NHEKs; assay: Immunostaining of KRT10 and pERK in organotypic epidermis treated with TG; assay type: cell-based, human; settings: 1 μM TG, 48 hours
Experimental: Paraffin-embedded formalin-fixed tissue cross-sections on glass slides were incubated at 65° C. for 2 h. Sections were prepared for staining by immersion in 3 baths of xylenes (Thermo-Fisher) for 5 min each, followed by 3 baths of 95% ethanol for 5 min each, then 70% ethanol for 5 minutes, and finally 3 baths of PBS for 5 min each. Slides were then submerged in antigen retrieval solution [0.1 M sodium citrate (pH 6.0) with 0.05% (v/v) Tween-20] and heated to 95° C. for 15 min. Slides were allowed to cool to room temperature and then washed with PBS. Tissue sections were encircled with a hydrophobic barrier using a PAP pen. Tissue sections were incubated in blocking buffer [0.5% (w/v) BSA, 10% (v/v) NGS in PBS] for 30 minutes at 37° C. in a humidified chamber. […]
Fluorescence images of immunostained tissue sections were captured by SDC microscopy as above and analyzed using Fiji. Quantification of fluorescence intensity was performed in using non-visibly labeled images from immunostained tissue cross-sections. The Fiji “Measure” function was used to calculate the mean intensity of the fluorescence signal and the mean background fluorescence intensity, which was subtracted from each value. The net fluorescence intensity was averaged across multiple non-overlapping HPF and the values from control cultures were normalized to an average value of 1.

[7] = B-RAF inhibitor monotherapy for cancer (Carlos G, et al. 2015); cited from earlier work

Row | Compound | integrity of keratinocyte sheets despite B-RAF inhibition (NHEK monolayers [1]) | integrity of epithelial sheets despite SERCA2 inhibition (NHEK monolayers [2]) | DSG1 mRNA expression [5] | KRT1 mRNA expression [5] | KRT10 mRNA expression [5] | KRT14 mRNA levels [5] | also measured
1 | COc1cccc(-c2cc(=O)c3ccccc3o2)c1N [PD98059] | comparably rescued cell cohesion | restored |  |  |  |  | resistance of keratinocyte sheets to mechanical stress (number of fragments) [3]: similarly rescued cohesion; effect on TG-induced loss of keratinocyte cohesion ([4]; 1 μM TG plus 20 μM PD98059 or 1 μM trametinib): mitigated; also recorded: improved keratinocyte cohesion; effect on TG-induced retention of nuclei in cornified layers / cornification ([4]; 1 μM TG plus 20 μM PD98059 or 1 μM trametinib, 48 hours): reduced TG-induced retention of nuclei in the cornified layers; also recorded: normalization of cornification
2 | O=C(NOCC1CC1)c1ccc(F)c(F)c1Nc1ccc(I)cc1Cl [PD184352] |  |  | sufficient to augment expression | sufficient to augment expression | sufficient to augment expression | did not significantly alter | 
3 | C/C=C(/C)C(=O)O[C@H]1C(C)=C2[C@H]([C@@H]1OC(=O)CCCCCCC)[C@@](C)(OC(C)=O)C[C@H](OC(=O)CCC)[C@@]1(O)[C@H]2OC(=O)[C@@]1(C)O [TG, thapsigargin] |  |  |  |  |  |  | KRT10 up-regulation by immunostaining (NHEKs): suppressed their ability to up-regulate KRT10; epithelial sheet fragmentation (NHEK monolayers [2]; 1 μM TG alone): significant increase in epithelial sheet fragmentation; also recorded: readily fragmented; keratinocyte cohesion in organotypic epidermis ([4]; 1 μM TG alone, 48 hours): disrupted keratinocyte cohesion most notably between basal and suprabasal cell layers; also recorded: loss of keratinocyte cohesion; also recorded: separation between basal and suprabasal layers; retention of nuclei in cornified layers ([4]; 1 μM TG alone, 48 hours): retention of nuclei in the cornified layers; KRT10 immunostaining in organotypic epidermis [6]: reduction in KRT10; pERK (ERK activation) in organotypic epidermis [6]: ERK hyper-activation
4 | N#CC(=C(/N)Sc1ccccc1N)/C(C#N)=C(\N)Sc1ccccc1N [U0126] | comparably rescued cell cohesion | restored | sufficient to augment expression | sufficient to augment expression | sufficient to augment expression | did not significantly alter | 
5 | CCCS(=O)(=O)Nc1ccc(F)c(C(=O)c2c[nH]c3ncc(-c4ccc(Cl)cc4)cc23)c1F [vemurafenib] |  |  |  |  |  |  | patients in whom GD was seen [7]: 38.9%
